Experimental data reported in patent publication US12157732B2, “eIF4E inhibitors and uses thereof” (PIC Therapeutics, Inc., priority 2021, dated 2024).

Molecular target: T1, Human eIF4E (aa 28-217) / biotin labeled 4G2 peptide (Homo sapiens, UniProt P06730)
T1 construct: Human eIF4E (aa 28-217) with a C-terminal His-tag; made in house
Test: Human eIF4E/4G2 binding assay (TR-FRET)
Settings: TR-FRET eIF4E/4G2 peptide binding; 4 hours preincubation with eIF4E at room temperature
Experimental: Example 3. Compound Testing in Human eIF4E/4G2 Binding Assay
Human eIF4E (aa 28-217) with a C-terminal His-tag was expressed in E. coli in inclusion bodies. The protein was solubilized with 8 M urea and purified under denaturing conditions using nickel-charged HisTrap HP columns (GE Healthcare). The purified protein was then refolded by diluting in 20 mM Hepes pH 7.0, 0.5 M NaCl, 1 mM DTT, 1 mM EDTA, 0.5 M arginine plus 6 M urea, and then dialyzing overnight into the same buffer without the urea. The protein was further dialyzed into 20 mM Hepes, pH 6.5, 50 mM NaCl, 1 mM EDTA, 1 mM DTT, and concentrated using Hitrap SP sepharose FF columns (GE Healthcare). The concentrated protein was dialyzed into 20 mM Hepes, pH 7.0, 0.5M NaCl, 5 mM DTT and 10% glycerol, and stored at −80° C. until use.
Test compounds (3.43 mM stock in DMSO) were diluted 2-fold in series in DMSO (10 concentration points). Compound solutions (1.2 μl/well) were added into black 384-well polypropylene microplates (Matrix, Thermal Scientific). Twenty-two microliters per well of Assay Buffer (50 mM NaPi, pH 6.5, 50 mM KCl, 1 mM DTT and 0.5 mg/ml gamma globulin) and eight microliters per well of 82.5 nM purified eIF4E in Assay Buffer were added. The samples were incubated at room temperature (20-23° C.) for 4 hours. Biotin labeled 4G2 peptide (Ac-Lys-Gln-Tyr-Asp-Arg-Glu-Phe-Leu-Leu-Asp-Phe-Gln-Phe-Met-Pro-Lys(Aha-Bio)-NH2, 1.75 μM stock in DMSO) was diluted to 0.14 μM in Assay Buffer (without DTT) and 5 μl/well was added. The samples were incubated at room temperature for 20 min. Five microliters per well of 6.4 nM Eu-streptavidin (Eu-SA, Perkin Elmer) and 80 nM Allophycocyanin (APC)-anti His antibody (Columbia Biosciences) in Assay Buffer (without DTT) were then added and the samples were incubated at room temperature for 20 min.
Assay signals were monitored by reading excitation at 340 nm and emission fluorescence at 615 nm and 665 nm on an Envision reader (Perkin Elmer). Normalized TR-FRET (time-resolved fluorescence resonance energy transfer) assay signal (Rn) was calculated by the formula: Rn=[(A−Ba−C×D)/(D−Bd)]×(Dc−Bd) Where A is the fluorescence intensity of the sample at 665 nm, D is the fluorescence intensity of the sample at 615 nm, Ba and Bd are plate backgrounds at 665 nm and 615 nm, respectively, Dc is the fluorescence intensity of 0.78 nM Eu-SA in the assay buffer at 615 nm The cross-talk factor (C) is determined by the following formula: C=(Ac−Ba)/(Dc−Bd) Where Ac is the fluorescence intensity of 0.78 nM Eu-SA in the assay buffer at 665 nm.
IC50 values were calculated using xLFit program (IDBS). Table 3 below lists IC50 of some compounds, wherein A represents IC50<0.5 μM; B represents 500 nM<IC50<1 μM; and C represents IC50>1 μM.

T1 sequence (P06730 28-217): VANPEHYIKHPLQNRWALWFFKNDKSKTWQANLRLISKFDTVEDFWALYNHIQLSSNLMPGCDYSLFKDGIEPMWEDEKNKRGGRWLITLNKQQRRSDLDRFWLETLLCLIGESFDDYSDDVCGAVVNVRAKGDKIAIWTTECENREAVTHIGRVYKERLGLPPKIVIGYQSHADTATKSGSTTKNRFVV

SMILES	IC50 [nM]
CC(C)c1nc(Nc2ncc(C(F)(F)F)cc2C(=O)O)sc1-c1ccc(Cl)c(Cl)c1 [I-1, 2-(5-(3,4-Dichlorophenyl)-4-Isopropylthiazol-2-Ylamino)-5-(trifluoromethyl)nicotinic acid]	< 500
CC(C)c1nc(Nc2ncc(-c3cccs3)cc2C(=O)O)sc1-c1ccc(Cl)c(Cl)c1 [I-2, 2-(5-(3,4-Dichlorophenyl)-4-Isopropylthiazol-2-Ylamino)-5-(Thiophen-2-yl)nicotinic acid]	< 500
CC(C)CCc1nc(Nc2ncc(-c3cccs3)cc2C(=O)O)sc1-c1ccc(Cl)c(Cl)c1 [I-3]	< 500
CC(C)CCc1nc(Nc2ncc(C(F)(F)F)cc2C(=O)O)sc1-c1ccc(Cl)c(Cl)c1 [I-4]	< 500
CC(C)CCc1nc(Nc2ccsc2C(=O)O)sc1-c1ccc(Cl)c(Cl)c1 [I-5]	< 500
CC(C)CCc1nc(Nc2cc(-c3ccccc3)sc2C(=O)O)sc1-c1ccc(Cl)c(Cl)c1 [I-6]	< 500
CC(C)CCc1nc(Nc2ncccc2C(=O)O)sc1-c1ccc(Cl)c(Cl)c1 [I-7]	< 500
CC(C)CCc1nc(Nc2ncc(-c3cccs3)cc2C(=O)O)sc1-c1ccccc1 [I-8]	< 500
CC(C)CCc1nc(Nc2ncc(-c3cccs3)cc2C(=O)O)sc1-c1ccc(S(C)(=O)=O)cc1 [I-9]	500 to 1000
CC(C)CCc1nc(Nc2ncc(C(F)(F)F)cc2C(=O)O)sc1-c1ccc(S(C)(=O)=O)cc1 [I-10]	500 to 1000
CC(C)CCc1nc(Nc2cc(C3CCCC3)sc2C(=O)O)sc1-c1ccc(Cl)c(Cl)c1 [I-11]	< 500
CC(C)CCc1nc(Nc2cc(C3CCCC3)sc2C(=O)O)sc1-c1ccc(Oc2ccccc2)cc1 [I-12]	< 500
CC(C)CCc1nc(Nc2cc(C3CCCC3)sc2C(=O)O)sc1-c1ccc(-n2ccccc2=O)cc1 [I-13]	< 500
CC(C)CCc1nc(Nc2ncc(-c3cccs3)cc2C(=O)O)sc1-c1ccc(Oc2ccccc2)cc1 [I-14]	< 500
CC(C)CCc1nc(Nc2ncc(C(F)(F)F)cc2C(=O)O)sc1-c1ccc(-c2ccccn2)cc1 [I-15]	< 500
CC(C)CCc1nc(Nc2ncc(C(F)(F)F)cc2C(=O)O)sc1-c1ccc(N2CCOCC2)cc1 [I-16, 2-(4-Isopentyl-5-(4-Morpholinophenyl)Thiazol-2-Ylamino)-5-(trifluoromethyl)nicotinic acid]	> 1000
CC(C)CCc1nc(Nc2ncc(-c3cccs3)cc2C(=O)O)sc1-c1ccc(OC(F)(F)F)cc1 [I-17]	< 500
CC(C)CCc1nc(Nc2cc(C3CCCC3)sc2C(=O)O)sc1-c1ccc(OC(F)(F)F)cc1 [I-18]	< 500
CC(C)c1nc(Nc2ncc(C(F)(F)F)cc2C(=O)O)sc1-c1ccc2ccccc2c1 [I-19]	500 to 1000
CC(C)c1nc(Nc2ncc(C(F)(F)F)cc2C(=O)O)sc1-c1cccc2ccccc12 [I-20]	500 to 1000
CC(C)c1nc(Nc2ncc(C(F)(F)F)cc2C(=O)O)sc1-c1cccs1 [I-21]	500 to 1000
CC(C)c1nc(Nc2ncc(C(F)(F)F)cc2C(=O)O)sc1-c1ccsc1 [I-22]	500 to 1000
CC(C)c1nc(Nc2ncc(C(F)(F)F)cc2C(=O)O)sc1C1=CCCCC1 [I-23]	500 to 1000
CC(C)c1nc(Nc2ncc(C(F)(F)F)cc2C(=O)O)sc1-c1ccc(-c2cccs2)cc1 [I-24, 2-(4-Isopropyl-5-(4-(Thiophen-2-Yl)Phenyl)Thiazol-2-Ylamino)-5-(trifluoromethyl)nicotinic acid]	< 500
CC(C)c1nc(Nc2ncc(C(F)(F)F)cc2C(=O)O)sc1-c1ccc(C(F)(F)F)cc1 [I-25]	500 to 1000
CC(C)c1nc(Nc2ncc(-c3ccccc3)cc2C(=O)O)sc1C1=CCCCC1 [I-27, 2-(5-cyclohexenyl-4-isopropylthiazol-2-ylamino)-5-phenylnicotinic acid]	500 to 1000

SMILES	IC50 [nM]
CC(C)Cc1nc(Nc2ncc(C(F)(F)F)cc2C(=O)O)sc1-c1ccc2ccccc2c1 [I-30]	< 500
CC(C)c1nc(Nc2ncc(C(F)(F)F)cc2C(=O)O)sc1-c1ccc(Cl)cc1Cl [I-31, 2-(5-(2,4-dichlorophenyl)-4-isopropylthiazol-2-ylamino)-5-(trifluoromethyl)nicotinic acid]	500 to 1000
CC(C)c1nc(Nc2ncc(C(F)(F)F)cc2C(=O)O)sc1-c1csc2ccccc12 [I-32, 2-(5-(benzo[b]thiophen-3-yl)-4-isopropylthiazol-2-ylamino)-5-(trifluoromethyl)nicotinic acid]	500 to 1000
CC(C)c1nc(Nc2ncc(C(F)(F)F)cc2C(=O)O)sc1-c1ccc(C(F)(F)F)cc1Cl [I-33]	500 to 1000
CC(C)c1ccc(-c2sc(Nc3ncc(C(F)(F)F)cc3C(=O)O)nc2C(C)C)cc1 [I-34]	500 to 1000
CC(C)c1nc(Nc2ncc(C(F)(F)F)cc2C(=O)O)sc1-c1ccc(C(C)(C)C)cc1 [I-35]	< 500
CC(C)c1nc(Nc2ncc(C(F)(F)F)cc2C(=O)O)sc1-c1ccc(F)cc1F [I-36]	500 to 1000
CC(C)c1nc(Nc2ncc(C(F)(F)F)cc2C(=O)O)sc1-c1ccc(Cl)cc1F [I-37, 2-(5-(4-chloro-2-fluorophenyl)-4-isopropylthiazol-2-ylamino)-5-(trifluoromethyl)nicotinic acid]	500 to 1000
CC(C)c1nc(Nc2ncc(C(F)(F)F)cc2C(=O)O)sc1-c1ccc(-c2ccccc2)cc1 [I-38]	< 500
CC(C)c1nc(Nc2ncc(C(F)(F)F)cc2C(=O)O)sc1-c1ccc(C(F)(F)F)c(F)c1 [I-39]	< 500
COc1cc(Cl)ccc1-c1sc(Nc2ncc(C(F)(F)F)cc2C(=O)O)nc1C(C)C [I-40]	500 to 1000
COc1ccc(-c2sc(Nc3ncc(C(F)(F)F)cc3C(=O)O)nc2C(C)C)cc1 [I-41]	500 to 1000
COc1ccc(-c2sc(Nc3ncc(C(F)(F)F)cc3C(=O)O)nc2C(C)C)cc1OC [I-42]	> 1000
COc1ccc(-c2sc(Nc3ncc(C(F)(F)F)cc3C(=O)O)nc2C(C)C)cc1F [I-43]	500 to 1000
CC(C)c1nc(Nc2ncc(C(F)(F)F)cc2C(=O)O)sc1-c1ccc(OC(F)F)cc1 [I-44]	500 to 1000
CC(C)c1nc(Nc2ncc(C(F)(F)F)cc2C(=O)O)sc1-c1ccc(OCc2ccccc2)cc1 [I-45]	< 500
CC(C)c1nc(Nc2ncc(C(F)(F)F)cc2C(=O)O)sc1-c1ccccn1 [I-46, 2-(4-isopropyl-5-(pyridin-2-yl)thiazol-2-ylamino)-5-(trifluoromethyl)nicotinic acid]	> 1000
COc1ccc(-c2sc(Nc3ncc(C(F)(F)F)cc3C(=O)O)nc2C(C)C)c(OC)c1 [I-47]	> 1000
CC(C)c1nc(Nc2ncc(C(F)(F)F)cc2C(=O)O)sc1-c1ccc(Cl)s1 [I-48]	500 to 1000
CC(C)c1nc(Nc2ncc(C(F)(F)F)cc2C(=O)O)sc1-c1ccc(-c2ccccc2)s1 [I-49]	< 500
COc1ccc(-c2sc(Nc3ncc(-c4cccs4)cc3C(=O)O)nc2C(C)C)cc1Cl [I-50]	500 to 1000
COc1ccc(-c2sc(Nc3ncc(C(F)(F)F)cc3C(=O)O)nc2C(C)C)cc1Cl [I-51]	500 to 1000
COc1ccc(-c2sc(Nc3ncc(-c4cccs4)cc3C(=O)O)nc2C2CC2)cc1Cl [I-52, 2-((5-(3-chloro-4-methoxyphenyl)-4-cyclopropylthiazol-2-yl)amino)-5-(thiophen-2-yl)nicotinic acid]	< 500
COc1ccc(-c2sc(Nc3ncc(-c4cccs4)cc3C(=O)O)nc2C)cc1Cl [I-53]	500 to 1000
COc1ccc(-c2sc(Nc3ncc(-c4cccs4)cc3C(=O)O)nc2C2CC2)cc1 [I-54]	< 500
COc1cc(-c2sc(Nc3ncc(-c4cccs4)cc3C(=O)O)nc2CC(C)C)ccc1F [I-55]	500 to 1000
